Experimental data taken from US20190017026A1, “METHOD AND DEVICE FOR CONSERVING VIABLE AND FUNCTIONAL HUMAN POLYMORPHONUCLEAR NEUTROPHILS” (INSTITUT PASTEUR, priority 2014, published 2019).
Entries after “also recorded” stand apart in the source; their conditions may differ. Structures can show the parent of a compound that is named as a salt.

Experiments:
human neutrophils = experiment: Neutrophil survival rate by flow cytometry (Annexin V-/PI-) upon storage; format: cell-based; conditions: for neutrophil survival rate (Annexin V-/PI-): 3 mM glucose, 32 μg/mL DMOG
Description: Neutrophils fractions with a >95% purity obtained by applying Method 1 or Method 2 were resuspended at a 5×10^6 cells/mL concentration in RPMI 1640 with L Glutamine and 25 mM Hepes (Gibco, Life Technologies), 10% of heat inactivated Foetal Bovine Serum (FBS) (Invitrogen, Gibco) and indicated concentrations of glucose (Sigma-Aldrich) and Dimethyloxalylglycine or DMOG (Cayman Chemical Company). For comparative experiments aiming at characterizing the role of oxygen on neutrophils survival, purified neutrophils (Method 1 or Method 2) were split in two identical fractions. One was stored at 37° C. with 5% CO2 under atmospheric conditions (20% O2 condition, +O2). The second one was stored at 37° C. in an anoxic chamber ([…], Don […]) under an atmosphere containing 90% N2, 5% CO2 and 5% H2 (0% O2 condition, -O2), during indicated time. Cell viability. For neutrophil survival analysis, human neutrophils (1×10^6) were washed twice in PBS and then resuspended in 1 ml of Annexin V binding Buffer. A 100 μl sample (1×10^5 cells) was stained with 5 μl of APC-Annexin V and 5 μl of Propidium iodide (PI) (0.5 μg/ml final concentration) as recommended by the manufacturer. At least 10^4 events were acquired for each condition on a FACSCaliburTM flow cytometer (BD Biosciences), and data were analyzed using CellQuestTM Pro Software (BD Biosciences). Viable cells were defined as Annexin V-/PI- quantifications. In this study, neutrophil survival rate was evaluated in various conditions by flow cytometry, by quantifying the proportion of viable (propidium iodide negative staining, PI-) and non-apoptotic (Annexin V negative staining, Annexin V-) cells.

neutrophils = conditions: normoxic conditions; cited from earlier work

O=C(O)CC(O)(CC(=O)O)C(=O)O [citrate, sodium citrate]
neutrophils survival rate as compared to heparin as anticoagulant (human neutrophils; blood collected with citrate, presence or absence of oxygen, 20 h and 48 h post purification): significant increase of neutrophils survival rate; also recorded: improved

O=C(O)CN(CCN(CC(=O)O)CC(=O)O)CC(=O)O [EDTA]
neutrophils survival as compared to citrate at blood collection (human neutrophils; blood collected with EDTA instead of citrate): even better results

COC(=O)CNC(=O)C(=O)OC [DMOG, Dimethyloxalylglycine]
neutrophil survival rate (Annexin V-/PI-) (human neutrophils; citrate (Method 2), anoxia, 20 h): 70±8% | neutrophil survival rate (Annexin V-/PI-) (human neutrophils; citrate (Method 2), anoxia, 48 h): 49±2% | neutrophil survival rate (Annexin V-/PI-) (human neutrophils; heparin (Method 1), absence of oxygen, 20 h storage): 54+10% | neutrophil survival rate (Annexin V-/PI-) (human neutrophils; heparin (Method 1), absence of oxygen, 48 h storage): 14+10% | effect on neutrophil apoptosis (neutrophils): decreases apoptosis
